Laboratory results from US8545834B2, “G-substrate for the treatment and prevention of parkinson's disease” (The McLean Hospital Corporation, priority 2007, dated 2013).

How the values were obtained:
[1] = test system: Akt, GSK3β; experiment: In vivo Akt and GSK3β phosphorylation, Western blot of substantia nigra and striata; design: species or system rat; settings: rats
Protocol: The in vivo effect of G-substrate overexpression on Akt and GSK3β phosphorylation was investigated. Substantia nigra (FIG. 12R) and striata (FIG. 12T) of the control (empty vector) lentivirus and G-substrate injected were dissected and a Western blot analysis was performed.
Animals were deeply anesthetized with an i.p. injection sodium pentobarbital and were sacrificed by exsanguination with the aid of ice-cold saline perfusion. For immunohistochemistry, the brains were then fixed with a 4% paraformaldehyde solution. The brains were then removed from the skull and placed in fresh 4% paraformaldehyde solution for 1 h, and equilibrated through 20% and 30% sucrose solutions and refrigerated until cutting for immunohistochemistry. For immunoblotting, brains injected with lenti-empty vector+lenti-eGFP (n=10) or lenti-G substrate+lenti-eGFP (n=10) were rapidly removed after saline perfusion and sliced coronally using a tissue chopper set to 1 mm (Campden Instruments Ltd., Lafayette, Ind.). On an inverted glass Petri dish over ice, regions of interest (striatum and substantia nigra region) were dissected from the individual 1 mm tissue slices, frozen on dry ice, and stored at −80° C.
Cells and tissue samples were collected from and suspended in lysis buffer containing: 50 mM Tris-HCl, 0.15 M NaCl, 0.32 M sucrose, 1.0 mM EDTA, and 1% NP-40. In addition, phosphatase inhibitors I and II (1:100) and protease inhibitors (1:100) were added fresh prior to cell lysis (Sigma-Aldrich, P2850, P5276, and P8340 respectively). Following cell lysis, the homogenate was centrifuged, a portion of the supernatant was reserved for protein determination (BCA Assay, Pierce, Rockford, Ill.) and the remaining was stored at −20° C. 20 μg (in vitro cell preps) and 50 μg (tissue dissections) of solubilized protein were mixed 1:1 with sample buffer and boiled for 5 min. The samples and molecular weight standards were separated using the Criterion precast 10% SDS-polyacrylamide gel system (Bio-Rad, Hercules, Calif.). […]

[2] = test system: A9 DA neurons; assay type: in vivo, rat
Source text: Retrograde 6-OHDA lesioning within the striatum is a well-established method of creating progressive degeneration of A9 DA neurons. The loss of TH immunoreactivity reflects actual loss of DA neurons (Sauer, 1994).
The in vivo neuroprotective effects of G-substrate against 6-OHDA-induced toxicity was examined by injecting 6-OHDA into the corpus striatum of rats which previously had either G-substrate or control genes (empty vector or YFP) delivered to the midbrain using the lentivirus as described above. 6-OHDA induced approximately an 80% loss of TH-positive neurons in the midbrain (FIG. 12Q) and complete loss of TH immunoreactivity in the striatum (data not shown). The severity of the striatal insult in this paradigm precluded our ability to usefully measure protection of striatal nerve terminals. […] Furthermore, most of the surviving TH-positive neurons in lenti G-substrate-transduced rats were strongly G-substrate-positive (FIGS. 12G-12L).
Rats received two 2.75 μl stereotaxic injections of either lenti-empty vector+lenti-eGFP (n=19), lenti-G substrate+lenti-eGFP (n=19), or lenti-YFP (n=14) and delivered at a rate of 0.2 μl/min using microinfusion pumps (Stoelting Co, Wood Dale, Ill.) with 10 min wait times after each injection. Lenti-eGFP was added to each condition, excluding the YFP condition, to serve as an exogenous marker for surgical targeting (0.5 μl of the total 5.5 μl A volume). SN injection coordinates were as follows: site 1: AP −4.8, ML −2.0, DV −7.2; site 2: AP −5.5, ML −1.8, DV −7.2; and tooth bar set at −3.3. Virus titers (p24) were as follows: G substrate, 60 ng/μl; empty vector, 60 ng/μl; eGFP, 83 ng/μl; and YFP, 60 ng/μl.
Two weeks following lentiviral injection, animals (lenti-empty vector+lenti-eGFP (n=9), lenti-G substrate+lenti-eGFP (n=9), or lenti-YFP (n=14)) received three 2.5 μl stereotaxic injections of 3.0 μg/μl 6-OHDA (total dose=22.5 μg 6-OHDA) delivered at a rate of 0.5 μl/min and 5 min wait times after each injection. Striatum injection coordinates were as follows: site 1: AP +1.3, ML −2.8, DV −4.5; site 2: AP +0.2, ML, −3.0, DV −5.0; site 3: AP −0.6, ML −4.0, DV −5.5; and tooth bar set at −3.3. The lesion was allowed to progress for 3 weeks after which animals were sacrificed for post mortem analyses.
Brains were cut frozen in the coronal plane at a thickness of 40 μm on a sliding microtome and six series of sections were stored in cryoprotectant. Two full series of sections were processed for visualization of tyrosine hydroxylase (TH) via the biotin-labeled antibody procedure. Briefly, following several washes in a PBS solution containing 0.01% Triton X-100 (PBS-T), endogenous peroxidase was quenched in a 3% hydrogen peroxide solution and background staining was then inhibited in a 5% normal goat serum solution. […]

[3] = G-substrate versus control lentivirus

G-substrate: human wild type G-substrate (SEQ ID NO.: 1) overexpressed from a lentiviral vector
pAkt levels ([1]; substantia nigra and striata, compared to control lentivirus): 1.38 fold
level of pGSK3β in the SN [1, 3]: unchanged
level of pGSK3β in the striatum [1, 3]: modestly but significantly higher
DA neuronal protection ([2]; 6-OHDA-lesioned rats): ~10%
transduced DA neurons protected from 6-OHDA-induced toxicity ([2]; worked out from 22.3% transduction and ˜10% protection): approximately 50%
